# Source: patent publication US10471054B2, “CDK1 inhibitors of acetyl chrysin mannich base derivatives, synthesis and use thereof” (priority 2016, dated 2019)
# Like-named read-outs stand apart in the source and are kept apart here.
# Columns and labels:
# [1] = Solubility in Octanol, water and pH media; assay type: physicochemical
# Procedure: The solubility and log P of acetyl ChrysinMannich base derivatives see TABLE 1.
# (§1) CH-j is pKa 5.3, log P 1.63 in Octanol/Water at 37° C. […] (BA-j 77m/ml). CH-j belongs to BCS II (low solubility, high permeability) and solubility presents the pH dependence. […] CH-j is a pH dependent fast release. […] It is speculated that CH-j has more appropriate log P and solubility with more likely entering tissue cells than others solubility acetyl Chrysin Mannich base derivatives.
# (§2) (about 20 times BA-f 277 μg/ml) and 564 μg/ml in water at 37° C. (about 1000 times BA-f 0.53m/ml). CH-f is BCS I (high solubility and permeability) and solubility presents the pH dependence. It is speculated that CH-f has more appropriate log P and solubility with entering systemic (blood system and tissue cells) than others solubility acetyl Chrysin Mannich base derivatives.
# pKa = assay type: physicochemical
# Procedure: as §1, §2
# Dissolution in pH media = assay type: physicochemical; settings: 37° C.
# Procedure: as §1
# MCF-7 and COS-7 = assay: .OH level, CCy-OH fluorescent probe imaging; assay type: cell-based; settings: 12.5 μM for 5 h
# Hep G2 = assay: NaOCl level, BODTPY-OCl fluorescent probe imaging; assay type: cell-based; settings: CH-j 40 μM or HCPT 5 μM for 4 h
# Procedure: In vitro cultured Hep G2 was given by BODTPY-OCl selective fluorescent probe 5 μM for 0.5 h, added CH-j 40 μM or HCPT 5 μM for 4 h, and performed fluorescence imaging.
# BGC-823 = assay: Anti-cancer cells proliferation activity (MTT, 48 h); assay type: cell-based; settings: Homo sapiens, BGC-823, MTT
# Procedure: Anti-cancer cells proliferationactivity of in vitro CH-j and CH-f were shown in TABLE 2 for the results of the screening of 5 cancers cells.
# FIG. 2: The initial screening results of the anticancer activity of BGC-823 (MTT, for 48 h), and X-coordinate is the drug concentration (MTT, for 48 h), and Y-coordinate the cell survival rate (%) in vitro.
# MCF-7 [2] = assay: Hoechst 33258 fluorescence staining, apoptosis; assay type: cell-based; settings: 0, 5, 10, 20 μM for 24 h
# Procedure: Hoechst 33258 is an active fluorescent dye with DNA specific binding, which is mainly combined with base area of DNA, which emits blue fluorescence when stimulated by ultraviolet light. The living cells emit uniform fluorescence, the apoptotic cells are bright blue fluorescence due to their chromatin fixation, dense and concentrated nuclei.
# MCF-7 was treated with 0, 5, 10, 20 μM of CH-f and CH-j for 24 h, Hoechst 33258 fluorescence staining, and cell morphological changes were shown in FIG. 3-1. […] CH-f and CH-j are completely different from the cytotoxic drug HCPT, which appears to be apoptotic at low doses and necrotic at high doses in BGC-823.
# FIG. 3-1 Hoechst 33258 staining results for MCF-7.
# caspase-3, 8, 9 = assay: Caspase activity in BGC-823; assay type: cell-based; settings: range of 0-10 μM, 24 h
# Excerpt: Caspase is a series of cysteinyl aspartate specific proteinase in the cytoplasm of protease with closely related to cell apoptosis, and participate in cell growth, differentiation and apoptosis regulation. Caspase is same key enzymes in apoptosis process and in the apoptosis of the mediated cells, there are almost all apoptotic signaling pathways involved in the pathway of caspase. […] Caspase-8 is an early starter for the induction of apoptosis, and the caspase-3 is the late executor. Pro-caspase-9 is dissociation with phosphorylation surviving, and inhibiting cell apoptosis and promoting division. Pro-caspase-9 by H2O2 is oxidized into caspase-9-S—S-caspase-9 with inhibiting cell division and inducing apoptosis. H2O2 can directly oxidize and activate caspase, hydrolyze antiapoptotic protein Bcl-2 and Bcl-xl substrate, so selectively induce apoptosis of cancer cells and reduce the damage of normal cells.
# FIG. 3-4: caspases: X-coordinate is CH-j concentration (μM) and Y-coordinate the activity of caspase (%) for BGC-823.
# MCF-7 [3] = assay: Autophagy in MCF-7; assay type: cell-based; settings: 50 μM for 9 h and 24 h
# Bcl-2 = Bcl-2 expression in MCF-7; assay type: cell-based; settings: 10 μM for 24 h
# HIF-1β = HIF-1β expression in BGC-823, immune-printing; assay type: cell-based; settings: 0, 2.5, 5, 10 μM for 1 h, then insulin
# Procedure: BGC-823 was treated with 0, 2.5, 5, 10 μM CH-j for 1 h, then the 2 μM insulin was added, and 2 h were cultured, and the cells were collected and lysed.
# FIG. 4: CH-j effect on the HIF-1 of BGC-823 was treated with 0, 2.5, 5, 10 μM CH-j for 1 h, then added 0.2 μM insulin culture for 24 h, and the HIF-1α and HIF-1β were determined by the immune imprinting method.
# [4] = Main metabolic pathways, glucose aldehyde acid metabolism; settings: in vivo
# Excerpt: (I) Neutral degradation in normal cells: CH-j is hydrolyzing into Hydroxy-phenyl-acetic acid (M152), 1-(2, 4, 6-Trihydroxy-phenyl)-ethanone (M168) and N-hydroxymethyl-piperidin-4-one (M129) as the main metabolic pathways.
# Flavopiridol, p276-00 and Vorciclib of Chrysin-organic amine derivatives, duo to mainly C7-glucose aldehyde acidification metabolites by oral, only a small amount is into the tissue cells. In the tissue cells, it is not easy to be metabolized in part because of the organic amine substituents, thus producing strong cytotoxicity. […] CH-j can enhance I phase metabolism and inhibit II phase metabolism. […] [Scientific Reports, 2015, 5: 13626; Fitoterapia, 2015, 107:36-34.]
# [5] = Tissue distribution in rat, 2 h; assay type: in vivo
# Procedure: The distribution results of CH-j tissue distribution were shown in FIG. 6, when CH-j 100 mg/kg rat by venous intravenous (i.v.) or oral (p.o.) 2 h. […] CH-j by oral in the stomach concentration of the large, about 2 time higher than other tissues. […] Compared with the intravenous administration, the oral administration was completely absorbed and the bioavailability was close to 100%.
# FIG. 6: 2 h distribution of the drug (100 mg/kg) by CH-j rats: Y-coordinate is the concentration of CH-j (μg/g), by intravenous (i.v.), by oral (p.o.).
# [6] = Pharmacokinetics by oral in monkey (urine drug concentration-time curve); assay type: in vivo; settings: rhesus, monkey (n = 6), 3 mg/kg
compound,measurement,setting,value
"CC(=O)c1c(O)c(CN2CCC(O)CC2)c2oc(-c3ccccc3)cc(=O)c2c1O [CH-j, 6-Acetyl-5,7-dihydroxy-8-(4-hydroxy-piperidin-1-ylmethyl)-2-phenyl-chromen-4-one]",BCS class,[1],BCS II
same,Solubility in Octanol relative to BA analogue,"[1]; CH-j vs BA-j, CH-f vs BA-f, 37° C.",about 6 times
same,solubility,"[1]; organic solvent or mixture, Octanol, 37° C., read-out: Solubility in Octanol",2420 µg/mL
same,solubility,"[1]; pH 1.2, simulated gastric fluid, 0.1M HCl (pH1.2), 37° C., read-out: Solubility",574 µg/mL
same,solubility,"[1]; pH 4.5, aqueous buffer, 0.05M NaAC-HAC buffered solution (pH4.5), 37° C., read-out: Solubility",528 µg/mL
same,solubility,"[1]; pH 6.8, aqueous buffer, PBS (pH6.8), 37° C., read-out: Solubility",78 µg/mL
same,solubility,"[1]; water, 37° C., read-out: Solubility in H2O",56 µg/mL
same,pKa,pKa,5.3
same,Dissolution,Dissolution in pH media; 0.05M NaAC-HAC buffered solution (pH4.5),90%
same,Dissolution,Dissolution in pH media; 0.1M HCl (pH1.2),62%
same,Dissolution,Dissolution in pH media; PBS (pH6.8),< 1.0%
same,Dissolution,Dissolution in pH media; water,< 0.1%
same,"Level of .OH, red fluorescence",MCF-7 and COS-7,present red fluorescence in MCF-7 and no in COS-7
same,"NaOCl, yellow green fluorescence",Hep G2,not present yellow green fluorescence
same,IC50,BGC-823,6.3 ± 1.13 µM
same,Apoptosis by Hoechst 33258 staining,MCF-7 [2],apoptosis cell percentage in dose dependent increase
same,"Activation of caspase-3, 8, 9","caspase-3, 8, 9","activated caspase-3, 8, 9 both in a dose-dependent upward trend"
same,Autophagy,MCF-7 [3],can cause autophagy
same,Bcl-2 expression,Bcl-2,Bcl-2 expression can be suppressed
same,HIF-1β expression,HIF-1β,without affecting the expression of HIF-1β
same,Dependence of metabolic pathway on CYP3A4,[4],independent of CYP3A4
same,Concentration in the stomach relative to other tissues,"[5]; 100 mg/kg rat, oral, 2 h",about 2 time
same,bioavailability,"[5]; in vivo, rat 100 mg/kg, oral compared with intravenous",~100%
same,"Detection of prototype drug in blood, urine, tissues",[5]; rat,"In the blood, urine, bile and tissues, the prototype drugs and metabolites can be detected"
same,Blood-brain barrier passage,"[5]; rat 100 mg/kg, 2 h",able to pass the blood-brain barrier
same,AUC(0-inf),[6],20.4 µM·h
